Literature values as cited in patent publication US5028692A, “Gastrin releasing peptide antagonist” (Merck & Co., Inc., priority 1989, dated 1991).
Peptide text beside a SMILES is read from it.

Tests used:
[1] = test system: SCLC cell lines
[2] = test system: bombesin-stimulated growth

Compound	inhibition of clonal and mass culture growth [1]	inhibition of bombesin-stimulated growth [2]
CSCC[C@H](NC(=O)[C@H](CC(C)C)NC(=O)CNC(=O)[C@H](Cc1ccc(O)cc1)NC(=O)[C@H](Cc1ccccc1)NC(=O)[C@H](CCCCN)NC(=O)[C@H](CC(N)=O)NC(=O)[C@@H]1CCCN1C(=O)[C@H](CC(=O)O)NC(=O)[C@H](C)NC(=O)[C@@H]1CCC(=O)N1)C(N)=O [physalaemin] (HELM PEPTIDE1{[Glp].A.D.P.N.K.F.Y.G.L.M.[am]}$$$$V2.0)	inhibits the clonal and mass culture growth of SCLC cell lines at picomolar concentrations	
[Leu^14 -.PSI.-CH2 NH-Leu^13 ] bombesin		potent inhibitor
